Columns and labels:
[1] = biological target: HiDapE (Haemophilus influenzae, UniProt P44514); assay: DapE inhibition, ninhydrin-based assay; format: biochemical; details: for inhibition at 100 µM: 100 µM inhibitor, read-out: DapE % Inhib at 100 µM; for IC50: ninhydrin assay
Protocol: All compounds were screened for DapE inhibitory potency using a ninhydrin-based assay at 100 μM, and IC50 values were determined for molecules that inhibited DapE > 70% at 100 μM (Table 1). Some SAR trends emerge from the data.
Experimental IC50 curves for cyclobutanone inhibitors against DapE were identified as sigmoidal shaped response curves, as opposed to simple hyperbolic plots. […] IC50 curves with the corresponding Hill coefficients are reported in the Supplementary Materials as Figures S74−S81. Experimental Hill coefficients may provide information on the number of binding sites of a biological target (receptors and enzymes) interacting with ligands.
The inhibition of HiDapE by potential inhibitors was assessed using the previously developed ninhydrin assay with slight modifications. It was performed in a PCR Thermal Cycler System. All experiments were performed in triplicate in 50 mM HEPES buffer at pH 7.5. Reaction volumes were 100 µL of 2 mM N^6-Methyl-L,L-SDAP and 8 nM HiDapE. Ninhydrin was purchased as a 2% solution in 100% DMSO/lithium acetate buffer at pH 5.2. The inhibitor, followed by HiDapE, was added to a 50 mM HEPES (pH 7.5) buffered solution at 30 °C, and the mixture was incubated at 30 °C for 10 min. N^6-Methyl-L,L-SDAP was added, and the reaction mixture was incubated at 30 °C for 10 min, then heated to 99 °C for 1 min, and further cooled to 0 °C for 1 min. The 2% ninhydrin solution (50 µL) was added, and the mixture was thoroughly mixed. The reaction mixture was heated to 80 °C for 15 min, then cooled to 0 °C for 1 min. The absorbance of an 80 μL aliquot was recorded at 570 nm on a BioTek Synergy 2 microplate reader. All the inhibition assays of HiDapE were performed in triplicate and the IC50 values were obtained by fitting the data following the modified Hill equation: V = V0 + (Vmax − V0) XnH/(XnH0.5 + XnH) using the graphing suite Origin 9.1 with the Levenberg–Marquardt non-linear least-squares algorithm. The velocity in the absence of the substrate is […]; the velocity at saturating concentrations of the substrate or with no inhibitor for the inhibition assay is Vmax; X is the concentration of the substrate or inhibitor; and X0.5 is the substrate (S0.5) and inhibitor (I0.5) concentration at 50% maximum velocity and at 50% inhibition, respectively. The Hill coefficient is represented as nH.

Chain of HiDapE (P44514 whole entry): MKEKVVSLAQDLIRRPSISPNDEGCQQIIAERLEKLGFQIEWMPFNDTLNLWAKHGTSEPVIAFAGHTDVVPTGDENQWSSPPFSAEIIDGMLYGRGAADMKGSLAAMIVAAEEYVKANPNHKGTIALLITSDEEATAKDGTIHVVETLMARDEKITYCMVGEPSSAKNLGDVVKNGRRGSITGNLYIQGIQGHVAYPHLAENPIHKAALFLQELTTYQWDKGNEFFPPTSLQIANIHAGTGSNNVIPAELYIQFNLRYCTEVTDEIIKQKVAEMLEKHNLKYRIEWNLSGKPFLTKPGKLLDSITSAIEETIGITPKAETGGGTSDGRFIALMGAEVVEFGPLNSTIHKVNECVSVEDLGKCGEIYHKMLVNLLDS

SMILES	melting point [°C]	inhibition at 100 µM [1] [%]	IC50 [1] [µM]
CC(C)[C@@H](NS(=O)(=O)c1ccc(C#N)cc1)C(=O)NC1CCC1=O (mixture of isomers) [3aa, (2R)-2-((4-Cyanophenyl)sulfonamido)-3-methyl-N-(2-oxocyclobutyl)butanamide]	150 to 151	5.6	–
COC(=O)c1ccc(S(=O)(=O)N[C@@H](C(=O)NC2CCC2=O)C(C)C)cc1 (mixture of isomers) [3ab, Methyl 4-(N-((2R)-3-methyl-1-oxo-1-((2-oxocyclobutyl)amino)butan-2-yl)sulfamoyl)benzoate]	190 to 191	10.7	–
CC(C)[C@@H](NS(=O)(=O)c1ccc(O)cc1)C(=O)NC1CCC1=O (mixture of isomers) [3ac, (2R)-2-((4-hydroxyphenyl)sulfonamido)-3-methyl-N-(2-oxocyclobutyl)butanamide]	139 to 141	44.4	–
O=C(N[C@@H](Cc1ccccc1)C(=O)NC1CCC1=O)OCc1ccccc1 (mixture of isomers) [3ad, Benzyl ((2S)-1-oxo-1-((2-oxocyclobutyl)amino)-3-phenylpropan-2-yl)carbamate]	–	96.2	69.8 ± 1.4
O=C(N[C@H](Cc1ccccc1)C(=O)NC1CCC1=O)OCc1ccccc1 (mixture of isomers) [3ae, Benzyl ((2R)-1-oxo-1-((2-oxocyclobutyl)amino)-3-phenylpropan-2-yl)carbamate]	–	97.9	55.4 ± 5.5
O=C(N[C@@H](Cc1ccc(O)cc1)C(=O)NC1CCC1=O)OCc1ccccc1 (mixture of isomers) [3af, Benzyl ((2S)-3-(4-hydroxyphenyl)-1-oxo-1-((2-oxocyclobutyl)amino)propan-2-yl)carbamate]	–	15.5	–
CC(C)[C@H](NC(=O)OCc1ccccc1)C(=O)NC1CCC1=O (mixture of isomers) [3ag, Benzyl ((2S)-3-methyl-1-oxo-1-((2-oxocyclobutyl)amino)butan-2-yl)carbamate]	–	53.9	–
Cc1ccccc1C(=O)NC1CCC1=O (centres unmarked) [3a, 2-Methyl-N-(2-oxocyclobutyl)benzamide]	100 to 102	16.8	–
O=C1CCC1NS(=O)(=O)c1ccc(C(F)(F)F)cc1 (centres unmarked) [3ah, N-(2-Oxocyclobutyl)-4-(trifluoromethyl)benzenesulfonamide]	74 to 76	22.6	–
O=C1CCC1NS(=O)(=O)c1ccc(F)cc1 (centres unmarked) [3ai, N-(2-Oxocyclobutyl)-4-(fluoro)benzenesulfonamide]	–	72.9	53.3 ± 5.4
Cc1cccc(C(=O)NC2CCC2=O)c1 (centres unmarked) [3b, 3-Methyl-N-(2-oxocyclobutyl)benzamide]	94 to 96	37.8	–
Cc1ccc(C(=O)NC2CCC2=O)cc1 (centres unmarked) [3c, 4-Methyl-N-(2-oxocyclobutyl)benzamide]	149 to 150	58.1	–
O=C(NC1CCC1=O)c1ccccc1Cl (centres unmarked) [3d, 2-Chloro-N-(2-oxocyclobutyl)benzamide]	102 to 103	33.6	–
O=C(NC1CCC1=O)c1cccc(Cl)c1 (centres unmarked) [3e, 3-Chloro-N-(2-oxocyclobutyl)benzamide]	64 to 66	45.8	–
O=C(NC1CCC1=O)c1ccc(Br)cc1 (centres unmarked) [3f, 4-Bromo-N-(2-oxocyclobutyl)benzamide]	104 to 105	25.2	–
COc1ccc(C(=O)NC2CCC2=O)cc1Cl (centres unmarked) [3g, 3-Chloro-4-methoxy-N-(2-oxocyclobutyl)benzamide]	134 to 136	29.1	–
COc1cc(Cl)c(C(=O)NC2CCC2=O)cc1OC (centres unmarked) [3h, 2-Chloro-4,5-dimethoxy-N-(2-oxocyclobutyl)benzamide]	123 to 125	24.4	–
O=C(NC1CCC1=O)c1ccccc1O (centres unmarked) [3i, 2-Hydroxy-N-(2-oxocyclobutyl)benzamide]	149 to 151	28.9	–
COc1ccc(C(=O)NC2CCC2=O)c(O)c1 (centres unmarked) [3j, 2-Hydroxy-4-methoxy-N-(2-oxocyclobutyl)benzamide]	131 to 133	73	66.4 ± 2.9
COc1cc(C(=O)NC2CCC2=O)cc(OC)c1OC (centres unmarked) [3k, 3,4,5-Trimethoxy-N-(2-oxocyclobutyl)benzamide]	144 to 146	93.7	39.6 ± 2.9
O=C(NC1CCC1=O)c1ccccn1 (centres unmarked) [3l, N-(2-Oxocyclobutyl)picolinamide]	97 to 99	25.6	–
O=C(NC1CCC1=O)c1cccnc1 (centres unmarked) [3m, N-(2-Oxocyclobutyl)nicotinamide]	–	24.9	–
O=C(NC1CCC1=O)c1cccnc1Cl (centres unmarked) [3n, 2-Chloro-N-(2-oxocyclobutyl)nicotinamide]	80 to 82	< 5	–

Further lines, results first:

melting point [°C]	inhibition at 100 µM [1] [%]	IC50 [1] [µM]	SMILES
–	92.8	45.7 ± 1.5	Cc1ccc(S(=O)(=O)N[C@@H](Cc2ccccc2)C(=O)NC2CCC2=O)cc1 (mixture of isomers) [3v, (2S)-2-((4-Methylphenyl)sulfonamido)-N-(2-oxocyclobutyl)-3-phenylpropanamide]
–	55	> 50	Cc1ccc(S(=O)(=O)N[C@H](Cc2ccccc2)C(=O)NC2CCC2=O)cc1 (mixture of isomers) [3w, (2R)-2-((4-Methylphenyl)sulfonamido)-N-(2-oxocyclobutyl)-3-phenylpropanamide]
–	19.6	–	Cc1ccc(S(=O)(=O)N[C@@H](Cc2c[nH]c3ccccc23)C(=O)NC2CCC2=O)cc1 (mixture of isomers) [3x, (2S)-3-(1H-Indol-3-yl)-2-((4-methylphenyl)sulfonamido)-N-(2-oxocyclobutyl)propanamide]
179 to 181	30.7	–	COc1ccc(S(=O)(=O)N[C@H](C(=O)NC2CCC2=O)C(C)C)cc1 (mixture of isomers) [3z, (2S)-2-((4-Methoxyphenyl)sulfonamido)-3-methyl-N-(2-oxocyclobutyl)butanamide]
114 to 115	34.6	–	O=C(NC1CCC1=O)c1cncc(Br)c1 (centres unmarked) [3o, 5-Bromo-N-(2-oxocyclobutyl)nicotinamide]
119 to 121	< 5	–	O=C(NC1CCC1=O)c1ccncc1 (centres unmarked) [3p, N-(2-Oxocyclobutyl)isonicotinamide]
155 to 156	48	–	O=C(NC1CCC1=O)c1cnc2ccccc2c1 (centres unmarked) [3q, N-(2-Oxocyclobutyl)quinoline-3-carboxamide]
89 to 91	< 5	–	O=C(NC1CCC1=O)c1cccc2cccnc12 (centres unmarked) [3r, N-(2-Oxocyclobutyl)quinoline-8-carboxamide]
–	36.4	–	Cc1ccc(S(=O)(=O)N[C@@H](Cc2ccccc2)C(=O)NCC2(O)CC2)cc1 [4a, (S)-N-((1-hydroxycyclopropyl)methyl)-2-((4-methylphenyl)sulfonamido)-3-phenylpropanamide]
–	19.1	–	Cc1ccc(S(=O)(=O)N[C@@H](Cc2ccccc2)C(=O)NCC(C)(C)O)cc1 [4b, (S)-N-(2-hydroxy-2-methylpropyl)-2-((4-methylphenyl)sulfonamido)-3-phenylpropanamide]

— paper PMC10815964, “Cyclobutanone Inhibitors of Diaminopimelate Desuccinylase (DapE) as Potential New Antibiotics” (International Journal of Molecular Sciences, 2024)
